This is an account of results in article PMC11094793, “Discovery of LLC0424 as a Potent and Selective in Vivo NSD2 PROTAC Degrader” (Journal of Medicinal Chemistry, 2024).

Where two headings read alike, the source gives them in different places.

Data set [1] has as its target T1, NSD1 (Homo sapiens, UniProt Q96L73).
T1 construct: endogenous in cells; host or cells: SEM
Kind of data set: Selectivity immunoblotting in SEM cells: NSD1. In kind it is cell-based. The following applies: 2 μM, 8 h. As for the experimental part: We conducted a global proteomic assay using tandem mass tags (TMT) labeled mass-spectrometry to unbiasedly quantify the protein change upon LLC0424 treatment in VCaP and RPMI-8402 cells. […] We further used SEM cell line to cross-validate the selectivity of LLC0424 for NSD2 over NSD1 and NSD3 as well as CRBN neo-substrates IKZF1, IKZF3, GSPT1, and CK-1α using immunoblotting. […] When we increased the treatment time of LLC0424 in SEM cells, we observed mild decrease of GSPT1 from 12 h (SI, Figure S3F).
After treatment, the cultured cells were collected and rinsed with phosphate-buffered saline (PBS) in room temperature. The cells were treated with RIPA buffers (ThermoFisher Scientific) supplemented with Halt Protease and Phosphatase Inhibitor Cocktail (ThermoFisher Scientific). After sonication and centrifugation, the total amount of protein in the cell lysates was measured by Pierce Bovine Serum Albumin Standard Pre-Diluted Set (ThermoFisher Scientific). After mixed with LDS-sample buffer (Invitrogen) supplemented with Sample Reducing Agent (Invitrogen) and heated in 70 °C for 10 min, equal amount of protein was loaded into NuPAGE 4–12%, Bis-Tris Protein Gel (ThermoFisher Scientific) or NuPAGE 3–8%, Tris-Acetate Protein Gel (ThermoFisher Scientific), and blotted with primary antibodies. […]
(In general: Immunoblotting shows a protein as a band on a membrane.)

The test system of data set [2] is H3K36me2. Nature of the data set: H3K36me2 level by immunoblotting. It counts as cell-based, human. The following applies: 2 μM. As for the experimental part:
(§1) NSD2 is the primary methyltransferase that transfers dimethyl to H3K36 in ALL with NSD2 gain-of-function mutation. Therefore, the effects of LLC0424 on H3K36me2 was evaluated in SEM and RPMI-8402 cells. […] Meanwhile, LLC0424 treatment also led to downregulation of H3K36Me2 in RPMI-8402 cells within 24 h (Figure 6B). […] We also conducted a colony formation assay to evaluate the effect of LLC0424 on the stem cell-like property of the leukemia cells. […] As LLC0424 leads to strong degradation of both NSD2-L and NSD2-S, the phenotypic changes upon LLC0424 treatment result from complete inactivation of NSD2 activity, including adaptor-like function of NSD2-S and SET-domain dependent enzymatic function of NSD2-L. The specific contributions of NSD2 isoforms warrant future investigation. To characterize the genes affected by LLC0424 treatment, we performed global transcriptome analysis of SEM cells treated by DMSO, LLC0424, or LLC0424N. LLC0424 treatment led to significant changes in the transcriptome of SEM cells with over 326 differentially expressed genes. […]
After treatment, the cultured cells were collected and rinsed with phosphate-buffered saline (PBS) in room temperature. […] After sonication and centrifugation, the total amount of protein in the cell lysates was measured by Pierce Bovine Serum Albumin Standard Pre-Diluted Set (ThermoFisher Scientific). […]

Data set [3] relates to RPMI-8402 cells. Kind of data set: Proliferation assay (CellTiter-Glo, 9 days), RPMI-8402. The following applies: 5 μM (Fig 6E) or 2 μM (Fig S4A). In kind it is cell-based, human. As for the experimental part: 2 × 10^3 cells per well were seeded in 5 replicates into 96-well plates and treated with 5 μM of the compound. Every 4 days, we added the compound with 5 μL of the 20* compound-containing mixture, reaching 1*concentration. Cell proliferation was evaluated by CellTiter-Glo assay (Promega).
Background: ATP-based viability assays read luminescence as a measure of living cells.

In data set [4] the test system is RPMI-8402 cells. Kind of data set: Colony formation in soft agar. It counts as cell-based, human. The following applies: 30 days. As for the experimental part: Colony formation in soft agar was conducted in 12-well plates, with the bottom layer containing 750 μL of 0.8% agarose in 10% FBS/cell media and the top layer containing 0.4% agarose (SEM cells or RPMI-8402 cells). LLC0424 was added every 3 days to the liquid layer on top agarose to reach a final concentration of 2 μM. At the 30 days of treatment, the cells were stained with iodonitrotetrazolium chloride (INT) by adding 500 μL 1× INT PBS solution into each well. After the staining, images were taken using brightfield microscope and plate scan was conducted using Epson Perfection V700 Photo. Colony number counting was performed using ImageJ.

Data set [5] has as its system SEM cells. Kind of data set: RNA-seq global transcriptome analysis. In kind it is cell-based, human. The following applies: 14 days of treatment, versus DMSO. As for the experimental part:
as §1, with “LLC0424N.” for “LLC0424N. LLC0424 treatment led to significant changes in the transcriptome of SEM cells with over 326 differentially expressed genes.”
Total RNA was isolated from cells using the miRNeasy Mini Kit (Qiagen). […] Paired-end libraries were sequenced with the Illumina HiSeq 2500 (2 × 100 nucleotide read length) with sequence coverage to 15–20 M paired reads. […] Then we performed the analysis in R. First, EdgeR (edgeR_3.39.6) was used to perform read counts normalization and filtering (counts >10) and then Limma-Voom (limma_3.53.10) was used to analyze differential expression.

Data set [6] can be described thus: PK parameters in rats (LC/MS/MS). The following applies: rat, in vivo; for MRT last: read-out: MRT (0-t). The source says: Table S4. PK parameters of LLC0424 in rats a Route/dose T1/2 Tmax Cmax AUC(0-t) CL MRT Vss F(%) […]
aDetermined using LC/MS/MS. T1/2: elimination half-life; Tmax: time for maximum concentration; Cmax: maximum concentration; AUC: the area under the curve; CL: clearance; MRT: mean residence time; Vss: volume of distribution; F: oral

[7] abbreviates: compared to DMSO or LLC0424N-treated group.

T1 sequence (Q96L73 whole entry): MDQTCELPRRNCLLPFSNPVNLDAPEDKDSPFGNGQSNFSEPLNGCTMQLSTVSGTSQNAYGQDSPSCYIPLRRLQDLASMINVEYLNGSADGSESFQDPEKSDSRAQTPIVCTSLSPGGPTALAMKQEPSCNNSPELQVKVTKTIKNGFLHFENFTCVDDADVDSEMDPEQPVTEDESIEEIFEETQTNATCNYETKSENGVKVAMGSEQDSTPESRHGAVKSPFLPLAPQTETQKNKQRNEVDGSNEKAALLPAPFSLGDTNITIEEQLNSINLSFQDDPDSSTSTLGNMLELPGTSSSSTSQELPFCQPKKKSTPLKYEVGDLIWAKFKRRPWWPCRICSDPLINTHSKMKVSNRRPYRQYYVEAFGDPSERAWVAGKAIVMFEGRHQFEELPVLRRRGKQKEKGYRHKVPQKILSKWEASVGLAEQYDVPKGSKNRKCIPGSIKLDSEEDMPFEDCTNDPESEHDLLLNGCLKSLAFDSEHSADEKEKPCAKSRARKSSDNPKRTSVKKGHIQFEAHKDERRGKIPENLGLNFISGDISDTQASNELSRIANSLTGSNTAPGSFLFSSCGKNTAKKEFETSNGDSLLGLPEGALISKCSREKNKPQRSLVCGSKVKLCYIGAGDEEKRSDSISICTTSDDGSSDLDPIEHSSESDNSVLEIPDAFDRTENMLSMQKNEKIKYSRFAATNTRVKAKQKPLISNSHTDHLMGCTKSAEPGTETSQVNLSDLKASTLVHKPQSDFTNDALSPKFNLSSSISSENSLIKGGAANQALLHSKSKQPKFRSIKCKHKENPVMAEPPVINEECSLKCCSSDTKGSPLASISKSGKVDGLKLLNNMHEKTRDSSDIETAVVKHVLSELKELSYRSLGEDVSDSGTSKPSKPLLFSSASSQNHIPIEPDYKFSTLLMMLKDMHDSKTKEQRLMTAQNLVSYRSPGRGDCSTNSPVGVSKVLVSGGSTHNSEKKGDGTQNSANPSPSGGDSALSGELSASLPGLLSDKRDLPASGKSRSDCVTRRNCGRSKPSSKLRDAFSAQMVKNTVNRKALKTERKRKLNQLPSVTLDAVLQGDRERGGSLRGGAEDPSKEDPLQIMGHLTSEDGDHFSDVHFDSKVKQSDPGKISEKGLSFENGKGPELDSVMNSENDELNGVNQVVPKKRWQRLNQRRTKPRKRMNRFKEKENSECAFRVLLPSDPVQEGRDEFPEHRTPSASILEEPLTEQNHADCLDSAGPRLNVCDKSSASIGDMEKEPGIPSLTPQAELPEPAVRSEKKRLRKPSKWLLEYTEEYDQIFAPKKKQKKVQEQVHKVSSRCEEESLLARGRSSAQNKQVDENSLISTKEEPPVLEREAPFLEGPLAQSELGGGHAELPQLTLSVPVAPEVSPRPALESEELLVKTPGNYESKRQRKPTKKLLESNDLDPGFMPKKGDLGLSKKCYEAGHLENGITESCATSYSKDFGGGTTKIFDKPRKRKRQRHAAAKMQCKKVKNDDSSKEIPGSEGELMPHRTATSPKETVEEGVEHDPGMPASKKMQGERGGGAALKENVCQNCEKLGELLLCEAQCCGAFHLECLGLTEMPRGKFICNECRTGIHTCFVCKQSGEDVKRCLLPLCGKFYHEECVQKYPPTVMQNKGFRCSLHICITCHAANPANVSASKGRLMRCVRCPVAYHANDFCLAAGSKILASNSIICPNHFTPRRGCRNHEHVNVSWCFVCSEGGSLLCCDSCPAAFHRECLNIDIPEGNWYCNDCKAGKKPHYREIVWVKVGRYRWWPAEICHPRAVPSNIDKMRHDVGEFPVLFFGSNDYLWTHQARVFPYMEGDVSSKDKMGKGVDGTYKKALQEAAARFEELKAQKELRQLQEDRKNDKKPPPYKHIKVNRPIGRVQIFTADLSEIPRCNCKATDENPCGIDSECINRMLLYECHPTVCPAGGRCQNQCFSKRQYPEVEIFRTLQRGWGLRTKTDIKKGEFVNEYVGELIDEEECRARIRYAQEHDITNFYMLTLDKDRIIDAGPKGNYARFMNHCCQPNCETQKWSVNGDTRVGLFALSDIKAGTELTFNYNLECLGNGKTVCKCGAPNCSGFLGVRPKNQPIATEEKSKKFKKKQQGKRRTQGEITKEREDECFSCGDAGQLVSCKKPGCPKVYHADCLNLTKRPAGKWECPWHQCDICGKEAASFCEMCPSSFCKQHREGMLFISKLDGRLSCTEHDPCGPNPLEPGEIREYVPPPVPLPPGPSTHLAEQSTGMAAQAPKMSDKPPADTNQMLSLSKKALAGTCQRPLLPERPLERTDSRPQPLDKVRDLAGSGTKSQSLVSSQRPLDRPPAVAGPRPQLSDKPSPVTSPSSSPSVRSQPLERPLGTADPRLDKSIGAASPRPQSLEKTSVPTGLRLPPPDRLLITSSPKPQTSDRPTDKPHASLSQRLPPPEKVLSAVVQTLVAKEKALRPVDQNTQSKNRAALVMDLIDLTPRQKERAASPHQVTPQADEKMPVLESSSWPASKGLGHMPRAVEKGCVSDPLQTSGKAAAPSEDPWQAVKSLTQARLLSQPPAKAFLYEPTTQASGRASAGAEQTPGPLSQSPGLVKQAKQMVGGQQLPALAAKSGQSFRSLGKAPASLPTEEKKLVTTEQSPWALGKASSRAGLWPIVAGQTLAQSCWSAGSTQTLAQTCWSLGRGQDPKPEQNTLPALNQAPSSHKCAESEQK

Usually AUC(0-t) stands for the area under the concentration-time curve up to a stated or last time point. Read a low AUC(0-t) as less exposure. What is called Cmax is the peak of the concentration-time curve. Usually Tmax stands for the time at which the peak concentration occurs. The clearance is the volume of plasma or blood freed of the substance per unit of time. As a reminder, the half-life is how long it takes for the measured level to halve. Low readings indicate rapid decline, high ones slow decline. Broadly, the bioavailability is dose-corrected exposure relative to a reference, in per cent. Low values mean poor availability, high ones good availability. With `O=C1CCC(N2C(=O)c3ccc(N4CCC(NC(=O)c5ccc(NC(=O)c6ccc(CN(C(=O)c7ccc8c(c7)OCC(=O)N8)C7CC7)cc6)cc5)CC4)cc3C2=O)C(=O)N1` (stereo not drawn) [compound 10l, N-Cyclopropyl-N-(4-((4-((1-(2-(2,6-dioxopiperidin-3-yl)-1,3-dioxoisoindolin-5-yl)piperidin-4-yl)carbamoyl)phenyl)carbamoyl)benzyl)-3-oxo-3,4-dihydro-2H-benzo[b][1,4]oxazine-7-carboxamide], the NSD1 protein level result in data set [1] is listed as “remained unchanged”. In addition, in data set [2] (RPMI-8402 cells, within 24 h), the H3K36Me2 level entry is recorded as “downregulation”. In addition, in data set [2] (SEM cells, as long as 8 days), the H3K36Me2 level entry is recorded as “persistent downregulation”. Further, the “cell growth on treatment for 9 days” value in data set [3] is “significantly inhibited”. The “formation of cell colonies” value in data set [4] (2 μM, INT staining) is reported as “significantly reduced the formation of cell colonies”. In data set [4] (setting [7]), the colony area result was “obviously smaller colonies” and the colony numbers entry is given as “significantly fewer cell colonies”. The “differentially expressed genes (transcriptome)” value in data set [5] was “over 326”. Also, in data set [6] (iv, i.v. 2 mg/kg), the AUC(0-t) was 4320 ng·h/mL, the Cmax is 7320 ng/mL, the Tmax turned out to be 0.083 h and the clearance was 7.58 mL/min/kg. In data set [6] (iv, i.v. 2 mg/kg), the half-life is 2.1 h and the MRT last was found to be 1.28 h. The Vd in data set [6] (iv, i.v. 2 mg/kg, read-out: Vss) came out at 0.763 L/kg. In data set [6] (oral 10 mg/kg), the AUC(0-t) came out at 777 ng·h/mL, the highest level (Cmax) was 162 ng/mL, the Tmax was found to be 2 h and the bioavailability is 3.67%. Besides, in data set [6] (oral 10 mg/kg), the half-life is 1.52 h and the MRT last was found to be 3.18 h.
